Experimental findings from patent US8980885B2, “Plant disease controlling composition and method for controlling plant disease” (Sumitomo Chemical Company, Limited, priority 2008, dated 2015) are described below.

This experiment relates to Sclerotinia sclerotiorum. Nature of the experiment: Controlling test against Sclerotinia sclerotiorum on cucumber by foliage spraying (Test Example 1). The experiment is classed as in vivo. As to conditions: single compound, 12° C., high humidity, 6 days. The protocol:
A sand loam was charged into a plastic pot, and cucumber (Sagamihanjiro) was seeded, and grown in a greenhouse for 12 days. A flowable of the compound I, and a flowable comprising any one of the compound II-i, the compound II-ii, the compound III, the compound IV, the compound V and the compound VI were diluted with water separately, and they were tank-mixed to prepare a tank mix solution having each predetermined concentration. The tank mix solution was subjected to foliage spraying so that it was sufficiently adhered to a leaf surface of the cucumber. After spraying, the plant was air-dried, and a PDA medium containing hyphae of Sclerotinia sclerotiorum was placed on the cucumber leaf surface. After seeding, this was placed under 12° C. and the high humidity for 6 days, the controlling effect was investigated. Separately, for comparison, each of the flowables was diluted with water to prepare a water-diluted solution of compounds I to VI having the predetermined concentration, and the similar controlling test was carried out. Further, for calculating a effective value, an onset area rate (ratio of onset area occupied in leaf area examined) in each treatment group was determined. The effective value was calculated by the Equation 1. […] A: Onset area rate of non-treated group B: Onset area rate of treated group In general, an effective value expected in treatment by mixing given two kinds of active ingredient compounds, i.e., an expected effective value is calculated by a Colby calculation equation of the Equation 2. E=X+Y−(X×Y)/100 “Equation 2” X: Effective value obtained by treatment with M ppm of the compound I Y: Effective value obtained by treatment with N ppm of the compound II, III or IV E: Effective value expected in treatment with M ppm of the compound I and N ppm of the compound II, III or IV (expected effective value) In addition, a synergistic effect was shown herein by a value calculated by the following Equation 3.

On to `CNC(=O)[C@H](OC)c1ccccc1COc1cc(C)ccc1C` [Compound II-i], for which the Actual effective value was 14% (0.2 ppm) and 55% (0.8 ppm).
Regarding `CNC(=O)/C(=N/OC)c1ccccc1COc1cc(C)ccc1C` [Compound III, (αE)-2-[(2,5-dimethylphenoxy)methyl]-α-(methoxyimino)-N-methylbenzeneacetamino, reference compound], for the setting “0.2 ppm”, the Actual effective value came out at 9%.
As to `CNC(=O)C(OC)c1ccccc1COc1cc(C)ccc1C` (racemic) [Compound II-ii], the Actual effective value is listed as 4% (0.2 ppm) and 31% (0.8 ppm).
For `COC(=O)N(OC)c1ccccc1COc1ccn(-c2ccc(Cl)cc2)n1` [Compound VI, methyl 2-[[1-(4-chlorophenyl)-1H-pyrazol-3-yloxymethyl]phenyl](N-methoxy)carbamate, reference compound], under “0.2 ppm”, the Actual effective value is given as 29%.
Consider `CO/N=C(/C(=O)OC)c1ccccc1CO/N=C(\C)c1cccc(C(F)(F)F)c1` [Compound IV, methyl (E)-methoxyimino-{(E)-α-[1-(α,α,α-trifluoro-m-tolyl]ethylideneaminooxy)-o-tolyl)acetate, reference compound], for which the Actual effective value (0.2 ppm) was 28%.
Take `C=CCSC(=O)n1c(N)c(-c2ccccc2C)c(=O)n1C(C)C` [Compound I]: under “3.1 ppm”, the Actual effective value was 58%.
Regarding `CO/C=C(/C(=O)OC)c1ccccc1Oc1cc(Oc2ccccc2C#N)ncn1` [Compound V, methyl (E)-2-{2-[6-(2-cyanophenoxy)pyrimidin-4-yloxy]phenyl}-3-methoxyacrylate, reference compound], the Actual effective value (0.2 ppm) is 10%.
